In PubChem BioAssay AID248 (DTP/NCI, 2004):
Values joined by “and” are separate entries in the source; they are usually repeats but may differ in a detail not shown here. Equal values may be shown once. Toxic doses and inconclusive results are not listed.

Tested on: L1210 leukemia ip in BDF1 mice, survival T/C
Assay: NCI In Vivo Anticancer Drug Screen. Data for tumor model L1210 Leukemia (intraperitoneal) in B6D2F1 (BDF1) mice
Conditions: endpoint: mean survival time, higher = longer survival
Outline: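 Ratio derived from survival: compound-dosed mice over vehicle-dosed mice, all bearing a transplantable tumor.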

[1] = dose: 100.0 mg/kg/injection, schedule: Q01DX001 (ip), vehicle: saline
[2] = dose: 200.0 mg/kg/injection, schedule: Q01DX001 (ip), vehicle: saline
[3] = dose: 100.0 mg/kg/injection, schedule: Q01DX001 (ip), vehicle: saline with Tween-80
[4] = dose: 100.0 mg/kg/injection, schedule: Q01DX009 (ip), vehicle: saline with Tween-80
[5] = dose: 200.0 mg/kg/injection, schedule: Q01DX009 (ip), vehicle: saline with Tween-80
[6] = dose: 400.0 mg/kg/injection, schedule: Q01DX009 (ip), vehicle: saline with Tween-80
[7] = dose: 100.0 mg/kg/injection, schedule: Q01DX009 (ip), vehicle: Klucel (hydroxypropylcellulose) (HPC)
[8] = dose: 100.0 mg/kg/injection, schedule: Q04DX003 (ip), vehicle: Klucel (hydroxypropylcellulose) (HPC)
[9] = dose: 200.0 mg/kg/injection, schedule: Q01DX009 (ip), vehicle: Klucel (hydroxypropylcellulose) (HPC)
[10] = dose: 200.0 mg/kg/injection, schedule: Q04DX003 (ip), vehicle: Klucel (hydroxypropylcellulose) (HPC)
[11] = dose: 400.0 mg/kg/injection, schedule: Q01DX009 (ip), vehicle: Klucel (hydroxypropylcellulose) (HPC)
[12] = dose: 400.0 mg/kg/injection, schedule: Q04DX003 (ip), vehicle: Klucel (hydroxypropylcellulose) (HPC)
[13] = dose: 100.0 mg/kg/injection, schedule: Q01DX001 (ip), vehicle: carboxymethylcellulose (CMC)
[14] = dose: 200.0 mg/kg/injection, schedule: Q01DX001 (ip), vehicle: carboxymethylcellulose (CMC)
[15] = dose: 400.0 mg/kg/injection, schedule: Q01DX001 (ip), vehicle: carboxymethylcellulose (CMC)
[16] = dose: 100.0 mg/kg/injection, schedule: Q04DX002 (ip), vehicle: Klucel (hydroxypropylcellulose) (HPC)
[17] = dose: 400.0 mg/kg/injection, schedule: Q01DX001 (ip), vehicle: saline
[18] = dose: 100.0 mg/kg/injection, schedule: Q04DX003 (ip), vehicle: saline

With `O=C(O)CCc1c[nH]c2ccc(N(CCCl)CCCl)cc12` the T/C (dose: 0.7 mg/kg/injection, schedule: Q01DX Z (ip), vehicle: carboxymethylcellulose (CMC)) was 114 % of control, the T/C (dose: 1.5 mg/kg/injection, schedule: Q01DX Z (ip), vehicle: carboxymethylcellulose (CMC)) was 116 % of control and the T/C (dose: 1.87 mg/kg/injection, schedule: Q01DX001 (ip), vehicle: carboxymethylcellulose (CMC)) was 121 % of control. The T/C (dose: 3.75 mg/kg/injection, schedule: Q01DX001 (oral), vehicle: carboxymethylcellulose (CMC)) was 119 % of control, the T/C (dose: 7.5 mg/kg/injection, schedule: Q01DX001 (ip), vehicle: carboxymethylcellulose (CMC)) was 173 % of control and the T/C (dose: 15.0 mg/kg/injection, schedule: Q01DX001 (oral), vehicle: carboxymethylcellulose (CMC)) was 103 % of control.
`CC(=O)N(CCN(C)C)Cc1ccccc1` was tested, and the T/C [1] was 98 % of control and the T/C [2] was 98 % of control.
In the case of `Cc1ccc(N=Nc2ccc(C)cc2NC(=O)c2ccc(Cl)cc2)cc1`, the T/C (dose: 50.0 mg/kg/injection, schedule: Q01DX001 (ip), vehicle: saline with Tween-80) is reported as 100 % of control, the T/C (dose: 50.0 mg/kg/injection, schedule: Q04DX003 (ip), vehicle: saline with Tween-80) is reported as 90 % of control and the T/C [3] is reported as 90 % of control. The T/C [4] was 93 % of control and 94 % of control, the T/C (dose: 100.0 mg/kg/injection, schedule: Q04DX002 (ip), vehicle: saline with Tween-80) was 94 % of control and 90 % of control and the T/C (dose: 100.0 mg/kg/injection, schedule: Q04DX003 (ip), vehicle: saline with Tween-80) was 93 % of control. For the same compound, the T/C [5] was 95 % of control and 97 % of control, the T/C (dose: 200.0 mg/kg/injection, schedule: Q04DX002 (ip), vehicle: saline with Tween-80) was 93 % of control and 91 % of control and the T/C (dose: 200.0 mg/kg/injection, schedule: Q04DX003 (ip), vehicle: saline with Tween-80) was 93 % of control. For the same compound, the T/C [6] was 90 % of control and 92 % of control, the T/C (dose: 400.0 mg/kg/injection, schedule: Q04DX002 (ip), vehicle: saline with Tween-80) was 87 % of control and 89 % of control and the T/C (dose: 400.0 mg/kg/injection, schedule: Q04DX003 (ip), vehicle: saline with Tween-80) was 89 % of control and 90 % of control.
In the case of `CN(N(P(N)(Cl)(c1ccccc1)c1ccccc1)P(N)(Cl)(c1ccccc1)c1ccccc1)P(N)(Cl)(c1ccccc1)c1ccccc1`, the T/C (dose: 100.0 mg/kg/injection, schedule: Q01DX001 (ip), vehicle: steriod suspending solution) is reported as 113 % of control and the T/C (dose: 200.0 mg/kg/injection, schedule: Q01DX001 (ip), vehicle: steriod suspending solution) is reported as 108 % of control.
For `O=[N+]([O-])c1c(Cl)c(Cl)cc(Cl)c1Cl`, the T/C [7] was 102 % of control and 92 % of control, the T/C [8] was 93 % of control and 97 % of control and the T/C [9] was 106 % of control and 91 % of control. The T/C [10] was 101 % of control, the T/C [11] was 95 % of control and 92 % of control and the T/C [12] was 95 % of control and 100 % of control.
With `Oc1ccc2ccc(O)c(C(NC(O)c3ccccc3)c3ccccc3)c2c1C(NC(O)c1ccccc1)c1ccccc1` (stereo unspecified) the T/C (dose: 10.0 mg/kg/injection, schedule: Q01DX001 (ip), vehicle: saline) was 96 % of control, the T/C (dose: 20.0 mg/kg/injection, schedule: Q01DX001 (ip), vehicle: saline) was 96 % of control and the T/C (dose: 40.0 mg/kg/injection, schedule: Q01DX001 (ip), vehicle: saline) was 93 % of control.
For `Cc1cc(C)[n+]([O-])c(C)c1[N+](=O)[O-]`, the T/C [1] was 101 % of control and the T/C [2] was 101 % of control.
In the case of `CC(C)(C)c1ccccc1OC(=O)Nc1ccc(F)cc1`, the T/C [13] is reported as 98 % of control, the T/C (dose: 100.0 mg/kg/injection, schedule: Q01DX009 (ip), vehicle: carboxymethylcellulose (CMC)) is reported as 95 % of control and 97 % of control and the T/C (dose: 100.0 mg/kg/injection, schedule: Q04DX002 (ip), vehicle: carboxymethylcellulose (CMC)) is reported as 94 % of control and 96 % of control and 106 % of control. The T/C (dose: 100.0 mg/kg/injection, schedule: Q04DX003 (ip), vehicle: carboxymethylcellulose (CMC)) was 97 % of control, the T/C [14] was 104 % of control and the T/C (dose: 200.0 mg/kg/injection, schedule: Q01DX009 (ip), vehicle: carboxymethylcellulose (CMC)) was 105 % of control. For the same compound, the T/C (dose: 200.0 mg/kg/injection, schedule: Q04DX002 (ip), vehicle: carboxymethylcellulose (CMC)) was 97 % of control and 98 % of control (2×), the T/C (dose: 200.0 mg/kg/injection, schedule: Q04DX003 (ip), vehicle: carboxymethylcellulose (CMC)) was 97 % of control and the T/C [15] was 101 % of control. The T/C (dose: 400.0 mg/kg/injection, schedule: Q01DX009 (ip), vehicle: carboxymethylcellulose (CMC)) was 103 % of control, the T/C (dose: 400.0 mg/kg/injection, schedule: Q04DX002 (ip), vehicle: carboxymethylcellulose (CMC)) was 92 % of control and 94 % of control and 98 % of control and the T/C (dose: 400.0 mg/kg/injection, schedule: Q04DX003 (ip), vehicle: carboxymethylcellulose (CMC)) was 91 % of control.
`O=[N+]([O-])c1ccccc1N=Cc1ccccc1O.[Co]` was tested, and the T/C (dose: 100.0 mg/kg/injection, schedule: Q01DX001 (ip), vehicle: other) was 98 % of control and the T/C (dose: 200.0 mg/kg/injection, schedule: Q01DX001 (ip), vehicle: other) was 104 % of control.
For `COc1cc(C=Nc2ccccc2)ccc1OC(=O)c1ccccc1`, the T/C (dose: 100.0 mg/kg/injection, schedule: Q04DX002 (ip), vehicle: gum acacia) was 103 % of control, the T/C (dose: 200.0 mg/kg/injection, schedule: Q04DX002 (ip), vehicle: gum acacia) was 95 % of control and the T/C (dose: 400.0 mg/kg/injection, schedule: Q04DX002 (ip), vehicle: gum acacia) was 88 % of control.
In the case of `O=C(Cc1ccccc1)Nc1cccc(O)c1`, the T/C [3] is reported as 97 % of control, the T/C (dose: 200.0 mg/kg/injection, schedule: Q01DX001 (ip), vehicle: saline with Tween-80) is reported as 96 % of control and the T/C (dose: 400.0 mg/kg/injection, schedule: Q01DX001 (ip), vehicle: saline with Tween-80) is reported as 95 % of control.
`Cc1nonc1C(=O)NN` was tested, and the T/C (dose: 25.0 mg/kg/injection, schedule: Q04DX002 (ip), vehicle: Klucel (hydroxypropylcellulose) (HPC)) was 93 % of control, the T/C (dose: 50.0 mg/kg/injection, schedule: Q04DX002 (ip), vehicle: Klucel (hydroxypropylcellulose) (HPC)) was 110 % of control and the T/C [16] was 93 % of control and 101 % of control.
For `CN1C(=O)NC(=O)C12CCNCC2`, the T/C [1] was 97 % of control, the T/C [2] was 103 % of control and the T/C [17] was 101 % of control.
In the case of `O=C1NC2(C=CC(Br)CC2)C(=O)C12CCCCC2` (stereo unspecified), the T/C (dose: 75.0 mg/kg/injection, schedule: Q01DX001 (ip), vehicle: saline) is reported as 104 % of control, the T/C (dose: 150.0 mg/kg/injection, schedule: Q01DX001 (ip), vehicle: saline) is reported as 100 % of control and the T/C (dose: 300.0 mg/kg/injection, schedule: Q01DX001 (ip), vehicle: saline) is reported as 102 % of control.
`CC(=O)Nc1ccc(S(C)(=O)=O)cc1I` was tested, and the T/C [13] was 93 % of control, the T/C [14] was 96 % of control and the T/C [15] was 91 % of control.
For `COc1cccc(NN)c1`, the T/C (dose: 50.0 mg/kg/injection, schedule: Q01DX009 (ip), vehicle: saline) was 100 % of control and the T/C [18] was 101 % of control.
In the case of `COC(=O)c1cn[nH]c1C(=O)OC`, the T/C [1] is reported as 100 % of control, the T/C [2] is reported as 100 % of control and the T/C [17] is reported as 96 % of control.
With `CC1CCC(C(C)C)C(NCc2ccccc2O)C1` (stereo unspecified) the T/C [8] was 89 % of control.
For `CCCCSC(N)=O`, the T/C [4] was 103 % of control, the T/C [16] was 94 % of control and the T/C [5] was 105 % of control. For the same compound, the T/C (dose: 200.0 mg/kg/injection, schedule: Q04DX002 (ip), vehicle: Klucel (hydroxypropylcellulose) (HPC)) was 97 % of control, the T/C [6] was 119 % of control and the T/C (dose: 400.0 mg/kg/injection, schedule: Q04DX002 (ip), vehicle: Klucel (hydroxypropylcellulose) (HPC)) was 90 % of control.
`CCCCCCCCCCCCCCCCOc1ccc(C2=NCC(C)S2)c(C)c1` (stereo unspecified) was tested, and the T/C [7] was 101 % of control, the T/C [9] was 96 % of control and the T/C [11] was 97 % of control.
For `CS1(=O)=CC(=O)CC(c2ccccc2)C1` (stereo unspecified), the T/C (dose: 100.0 mg/kg/injection, schedule: Q01DX001 (ip), vehicle: Klucel (hydroxypropylcellulose) (HPC)) was 101 % of control, the T/C [7] was 107 % of control and the T/C [8] was 106 % of control. For the same compound, the T/C (dose: 200.0 mg/kg/injection, schedule: Q01DX001 (ip), vehicle: Klucel (hydroxypropylcellulose) (HPC)) was 98 % of control, the T/C [9] was 102 % of control and the T/C [10] was 104 % of control. For the same compound, the T/C (dose: 400.0 mg/kg/injection, schedule: Q01DX001 (ip), vehicle: Klucel (hydroxypropylcellulose) (HPC)) was 98 % of control, the T/C [11] was 107 % of control and the T/C [12] was 102 % of control.
For `O=NN(CS(=O)(=O)O)c1ccccc1`, the T/C [18] was 98 % of control and the T/C (dose: 200.0 mg/kg/injection, schedule: Q04DX003 (ip), vehicle: saline) was 103 % of control.
